Data from US12403144B2, “HECT E3 ligase inhibitors and uses thereof” (IFOM FONDAZIONE ISTITUTO FIRC DI ONCOLOGIA MOLECOLARE, priority 2019, dated 2025).

Target: T1, HECT domain of NEDD4 (Homo sapiens, UniProt P46934)
T1 construct: crystal structure of the HECT domain of NEDD4 in complex with compound 12; made in house
T1 sequence (P46934 519-900 isoform P46934-4 limits assumed): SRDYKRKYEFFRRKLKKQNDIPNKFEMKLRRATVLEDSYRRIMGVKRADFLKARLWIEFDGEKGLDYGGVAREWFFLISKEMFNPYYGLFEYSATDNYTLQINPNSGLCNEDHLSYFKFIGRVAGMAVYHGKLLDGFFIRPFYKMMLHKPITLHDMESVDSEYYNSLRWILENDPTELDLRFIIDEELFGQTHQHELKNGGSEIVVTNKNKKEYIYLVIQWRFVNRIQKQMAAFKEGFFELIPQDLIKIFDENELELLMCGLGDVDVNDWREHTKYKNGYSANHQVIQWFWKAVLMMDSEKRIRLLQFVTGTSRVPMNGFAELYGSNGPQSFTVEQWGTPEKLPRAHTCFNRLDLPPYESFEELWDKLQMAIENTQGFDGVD
Test: X-Ray crystal structure of the HECT domain of NEDD4 in complex with compound
Assay type: binding
Conditions: crystal soaking; thiol group of Cys627 attacks the α,β-unsaturated ester
Excerpt: FIG. 2: Structure of NEDD4 HECT in complex with compound 12. a. Compound 12 (dark grey sticks representation) binding to the HECT of NEDD4 (light grey), with a Fo-Fc map, calculated omitting the ligand, contoured at 2.5α level (represented as a grey mesh). b. Details of ligand binding: compound 12 and covalently or hydrogen-bonded NEDD4 residues are in ball-and-stick representation, hydrogen bond is shown as dotted line; spoked arcs represent protein residues making nonbonded contacts with the ligand.
FIG. 3: Structure of apo NEDD4 HECT superimposed with the one of the complex HECT-compound 12. Changes in the HECT structure upon compound 12 binding. Apo-HECT (pdb entry 2xbf, version 1.2, 13 Jul. 2011) depicted as dark grey ribbon; complex depicted as light grey ribbon. Side chains of residues Glu554 and Tyr634, and to a less extent those of Tyr604 and Tyr605, as well as main and side chain of residue Cys627 (covalently bound to the inhibitor) are rearranged upon inhibitor binding.
The inventors obtained by X-Ray the crystal structure of the HECT domain of NEDD4 in complex with compound 12. […]

binding mode in crystal structure of NEDD4 HECT complex: covalent link to the protein
Structure (SMILES): CCOC(=O)/C=C/CNCCCCN1c2ccccc2CCc2ccc(Cl)cc21.O=C(O)/C=C\C(=O)O [Compound 12, Ethyl (E)-4-[4-(3-chloro-10,11-dihydro-5H-dibenzo[b,f]azepin-5-yl)butylamino]but-2-enoate maleate]
